# Results published in patent US6787541B1, “Thieno-and furopyrimidine derivatives as A2A-receptor antagonists” (Vernalis Research Limited, priority 1999, dated 2004).
# Tests used:
# cataleptic responses = settings: cited from earlier work
# [1] = molecular target: T1, human adenosine A2A receptors expressed in HEK-293 cells (Homo sapiens, UniProt P29274); experiment: Binding affinities at hA2A receptors, displacement of [3H]-CGS 21680
# T1 construct: expressed in transfected cells; host or cells: HEK-293 cells
# [2] = tested on: haloperidol-induced deficits in locomotor activity in mice; experiment: Haloperidol-induced hypolocomotion model; format: in vivo; settings: intraperitoneally at a dose of 10 mg/kg
# From the text: Haloperidol-induced Hypolocomotion Model
# This approach is also considered a valid method for screening drugs with potential antiparkinsonian effects. Thus, the ability of novel adenosine antagonists to block haloperidol-induced deficits in locomotor activity in mice can be used to assess both in vivo and potential antiparkinsonian efficacy.
# Female TO mice (25-30 g) obtained from TUCK, UK, are used for all experiments. Animals are housed in groups of 8 [cage size—40 (width)×40 (length)×20 (height)cm] under 12 hr light/dark cycle (lights on 08:00 hr), in a temperature (20±2° C.) and humidity (55±15%) controlled environment. Animals have free access to food and water, and are allowed at least 7 days to acclimatize after delivery before experimental use.
# Liquid injectable haloperidol (1 ml Serenance ampoules from Baker Norton, Harlow, Essex, each containing haloperidol BP 5 mg, batch # P424) are diluted to a final concentration of 0.02 mg/ml using saline. Test compounds are typically prepared as aqueous suspensions in 8% Tween. […]
# 1.5 hours before testing, mice are administered 0.2 mg/kg haloperidol, a dose that reduces baseline locomotor activity by at least 50%. […] Horizontal locomotor activity is determined by placing the cages within a frame containing a 3×6 array of photocells linked to a computer, which tabulates beam breaks. […]
# Parkinsonian patients = settings: cited from earlier work
# T1 sequence (P29274 whole entry): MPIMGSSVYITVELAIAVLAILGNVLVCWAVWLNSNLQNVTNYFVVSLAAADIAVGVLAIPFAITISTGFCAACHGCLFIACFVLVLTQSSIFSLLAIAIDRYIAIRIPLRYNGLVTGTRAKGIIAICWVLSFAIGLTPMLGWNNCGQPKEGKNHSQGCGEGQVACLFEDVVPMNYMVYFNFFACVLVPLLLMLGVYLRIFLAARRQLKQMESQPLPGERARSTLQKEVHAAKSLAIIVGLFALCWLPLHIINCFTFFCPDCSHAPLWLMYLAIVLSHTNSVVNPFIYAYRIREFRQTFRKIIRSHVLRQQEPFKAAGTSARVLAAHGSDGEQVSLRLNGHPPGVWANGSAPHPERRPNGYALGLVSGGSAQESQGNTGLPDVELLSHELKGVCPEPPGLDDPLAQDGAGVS
Structure (SMILES),Ki [1],melting point,further results
"CCCn1c(=O)c2c(nc(/C=C/c3ccc(OC)c(OC)c3)n2C)n(CCC)c1=O [KF 17837, (E)-8-(3,4-dimethoxystyryl)-1,3-dipropyl-7-methylxanthine]",,,anticataleptic effects of a subthreshold dose of L-DOPA plus benserazide (cataleptic responses; in vivo): potentiated; catalepsy induced by haloperidol and reserpine (cataleptic responses; in vivo): reduced; cataleptic responses induced by intracerebroventricular administration of CGS 21680 (cataleptic responses; oral administration): significantly ameliorated
"O=C(c1cccs1)c1nc(N2CCOCC2)nc2ccsc12 [Example 77, 2-(4-Morpholinyl)thieno[3,2-d]pyrimidin-4-yl 2-thienylmethanone]",97 nM,199.9 to 200.5 °C,
"O=C(c1cccs1)c1nc(N2CCC(O)CC2)nc2ccsc12 [Example 86, 2-(4-Hydroxypiperidin-1-yl)thieno[3,2-d]pyrimidin-4-yl 2-thienylmethanone]",,,reversal of haloperidol-induced hypolocomotion [2]: significantly reversed
"CSc1nc(C(=O)c2cccs2)c2sccc2n1 [Example 48, 2-Methylthiothieno[3,2-d]pyrimidin-4-yl 2-thienylmethanone]",151 nM,189.7 to 190.6 °C,
"Cc1ccsc1C(=O)c1nc(NCCO)nc2ccsc12 [Example 118, 2-(2-Hydroxyethylamino)thieno[3,2-d]pyrimidin-4-yl 3-methyl-2-thienylmethanone]",7 nM,194.5 to 195 °C,
"O=C(c1ccccc1)c1nc(Cl)nc2ccsc12 [Example 28, 2-Chlorothieno[3,2-d]pyrimidin-4-yl phenylmethanone]",865 nM,162.2 to 163.1 °C,
"COc1nc(C(=O)c2cccs2)c2scc(C)c2n1 [Example 37, 2-Methoxy-7-methylthieno[3,2-d]pyrimidin-4-yl 2-thienylmethanone]",361 nM,144 to 146 °C,
"COCCNc1nc(C(=O)c2cccs2)c2sccc2n1 [Example 65, 2-(2-Methoxyethylamino)thieno[3,2-d]pyrimidin-4-yl 2-thienylmethanone]",21 nM,135.6 to 135.9 °C,
"CC(C)Nc1nc(C(=O)c2cccs2)c2sccc2n1 [Example 61, 2-Isopropylaminothieno[3,2-d]pyrimidin-4-yl 2-thienylmethanone]",21 nM,134.8 to 135.6 °C,
"Cc1cc(C(=O)c2nc(C(F)(F)F)nc3ccsc23)oc1C [Example 74, 4,5-Dimethyl-2-furyl 2-trifluoromethylthieno[3,2-d]pyrimidin-4-ylmethanone]",90 nM,185 to 186 °C,
"CCc1nc(C(C#N)c2ccccn2)c2sccc2n1 (stereo not drawn) [Example 34, 2-Ethyl-α-(2-pyridyl)thieno[3,2-d]pyrimidine-4-acetonitrile]",245 nM,240 to 242 °C,
"C=CCNc1nc(C(=O)c2cccs2)c2sccc2n1 [Example 59, 2-Allylaminothieno[3,2-d]pyrimidin-4-yl 2-thienylmethanone]",18 nM,142.1 to 142.9 °C,
"CN(C)c1nc(C(=O)c2ccccc2)c2sccc2n1 [Example 40, 2-Dimethylaminothieno[3,2-d]pyrimidin-4-yl phenylmethanone]",295 nM,116.5 to 117 °C,
"Cc1nc(C(C#N)c2ccccn2)c2sccc2n1 (stereo not drawn) [Example 64, 2-Methyl-α-(2-pyridyl)thieno[3,2-d]pyrimidine-4-acetonitrile]",529 nM,266 to 269 °C,
"O=C(c1ccccc1)c1nc(NCCO)nc2ccsc12 [Example 72, 2-(2-Hydroxyethylamino)thieno[3,2-d]pyrimidin-4-yl phenylmethanone]",126 nM,114.1 to 114.9 °C,
"Cc1ccc(C(=O)c2nc(C(F)(F)F)nc3ccsc23)cc1 [Example 29, 4-Methylphenyl 2-trifluoromethylthieno[3,2-d]pyrimidin-4-ylmethanone]",539 nM,127 to 129 °C,

Structure (SMILES),Ki [1],melting point,further results
"O=C(c1cccs1)c1nc(NCCN2CCOCC2)nc2ccsc12 [Example 78, 2-(2-(4-Morpholinyl)ethylamino)thieno[3,2-d]pyrimidin-4-yl 2-thienylmethanone]",46 nM,> 120 °C (dec.),
"Cc1ccccc1C(=O)c1nc(C(F)(F)F)nc2ccsc12 [Example 11, 2-Methylphenyl 2-trifluoromethylthieno[3,2-d]pyrimidin-4-ylmethanone]",330 nM,116 to 118 °C,
"O=C(c1cc(Br)cs1)c1nc(C(F)(F)F)nc2ccsc12 [Example 57, 4-Bromo-2-thienyl 2-trifluoromethylthieno[3,2-d]pyrimidin-4-ylmethanone]",800 nM,178 to 179 °C,
"O=C(c1ccccc1Cl)c1nc(C(F)(F)F)nc2ccsc12 [Example 8, 2-Chlorophenyl 2-trifluoromethylthieno[3,2-d]pyrimidin-4-ylmethanone]",586 nM,122 to 123 °C,
"O=C(c1ccc(Br)s1)c1nc(C(F)(F)F)nc2ccsc12 [Example 46, 5-Bromo-2-thienyl 2-trifluoromethylthieno[3,2-d]pyrimidin-4-ylmethanone]",101 nM,180 to 182 °C,
"COc1ccc(C(=O)c2nc(C(F)(F)F)nc3ccsc23)s1 [Example 68, 5-Methoxy-2-thienyl 2-trifluoromethylthieno[3,2-d]pyrimidin-4-ylmethanone]",105 nM,160 to 162 °C,
"CC(C)(C)OC(=O)NCCNc1nc(C(=O)c2cccs2)c2sccc2n1 [Example 54, Tert-butyl (2-(4-(2-thienylcarbonyl)thieno[3,2-d]pyrimidin-2-yl)aminoethyl)carbamate]",36 nM,199.9 to 200.7 °C,
"CCOC(=O)CCCNc1nc(C(=O)c2cccs2)c2sccc2n1 [Example 76, Ethyl 4-(4-(2-thienylcarbonyl)thieno[3,2-d]pyrimidin-2-ylamino)butanoate]",8 nM,143.3 to 143.7 °C,
"Cc1ccsc1C(=O)c1nc(C(F)(F)F)nc2ccsc12 [Example 42, 3-Methyl-2-thienyl 2-trifluoromethylthieno[3,2-d]pyrimidin-4-ylmethanone]",26 nM,201 to 202 °C,
"O=C(c1cccs1)c1nc(Cl)nc2ccsc12 [Example 44, 2-Chlorothieno[3,2-d]pyrimidin-4-yl 2-thienylmethanone]",91 nM,190.5 to 191 °C,
"Cn1c(=O)c2[nH]cnc2n(C)c1=O [theophylline, 1,3-dimethylxanthine]",,,"mean objective disability scores (Parkinsonian patients; 15 Parkinsonian patients, up to 12 weeks, 150 mg/day oral): significant improvements; patients reporting moderate or marked subjective improvement (Parkinsonian patients; of 15 Parkinsonian patients, up to 12 weeks, 150 mg/day oral): 11; serum theophylline levels (Parkinsonian patients; slow release oral theophylline preparation 150 mg/day, after one week): 4.44 mg/L"
"O=C(c1ccc(Cl)s1)c1nc(C(F)(F)F)nc2ccsc12 [Example 12, 5-Chloro-2-thienyl 2-trifluoromethylthieno[3,2-d]pyrimidin-4-ylmethanone]",31 nM,165 to 167 °C,
"CCCc1nc(C(C#N)c2ccccn2)c2sccc2n1 (stereo not drawn) [Example 60, 2-n-Propyl-α-(2-pyridyl)thieno[3,2-d]pyrmidine-4-acetonitrile]",237 nM,185 to 187 °C,
"CCOc1nc(C(=O)c2cccs2)c2sccc2n1 [Example 73, 2-Ethoxythieno[3,2-d]pyrimidin-4-yl 2-thienylmethanone]",48 nM,164.6 to 165.4 °C,
"CN(C)c1ccc(C(=O)c2nc(C(F)(F)F)nc3ccsc23)s1 [Example 56, 5-Dimethylamino-2-thienyl 2-trifluoromethylthieno[3,2-d]pyrimidin-4-ylmethanone]",309 nM,188 to 191 °C,
